In assay [1] the target is T1, E. coli ProRS (Escherichia coli, UniProt P16659). As to the kind of experiment: ELSA of ProRS surrogate ligand. The following applies: tested on ProRS, GST-src SH3, GST, GST-UL44, TyrRS, GST-MDM2. It is filed as binding. The protocol:
(§1) Target protein was immobilized in microtiter wells by incubating 0.5-2.0 μg per well in 100 μl of 0.1 M NaHCO3 overnight at 4° C. […] During the 1 hour blocking period, the SA-AP:surrogate ligand conjugate was prepared by mixing 2 μg SA-AP and 50 pmol biotinylated surrogate ligand for each well of target protein. (This corresponds to a 1:1 ratio of biotinylated peptide to biotin binding sites.) The mixture was incubated at room temperature for 15-20 minutes and then diluted with Tris-buffered saline-TWEEN-20 detergent (TBST) 10 mM Tris-HCl, pH 8.0, 150 mM NaCl, 0.05% TWEEN-20 detergent such that there was 100 μl of conjugate per well. For lower concentrations of surrogate ligand, an unrelated biotinylated peptide was titrated in to keep the total amount of biotinylated peptide at 50 pmol/well and total SA-AP at 2 μg/well.
(§2) After blocking, the wells were washed once with 200 μl TBST. The surrogate ligand:SA-AP conjugate was then added (100 μl/well) and incubated at room temperature for 2 hours. The wells were then washed 5 times with 300 μl TBST using a BioRad 1575 Immunowash plate washer. The assay was developed by adding 100 μl of pNPP and incubating at room temperature for 5-10 minutes. The absorbance was read at 405 nm.
(§3) A peptide corresponding to the most often isolated phage was synthesized and used in an ELSA as described in example 1. […]

Assay [2] deals with T1, E. coli ProRS. The experiment in a line: ProRS charging assay. It is filed as biochemical. As to the method:
One question that could be answered with peptides designed from these phage is whether or not they are directed to random regions on the target protein or if they target active sites and regions of other biological interactions. The peptides used in the above ELSAs were added to a charging assay to assess its affects on enzymatic activity of the target.

The target of a further assay is TyrRS (Haemophilus influenzae, UniProt P43836). The experiment in a line: ELSA of TyrRS surrogate ligand. It is filed as binding. The following applies: tested on TyrRS, GST-src SH3, GST, GST-UL44, GST-MDM2, ProRS. As to the method: as §1
After blocking, the wells were washed once with 200 μl TBST. The surrogate ligand:SA-AP conjugate was then added (100 μl/well) and incubated at room temperature for 2 hours. The wells were then washed 5 times with 300 μl TBST using a BioRad 1575 Immunowash plate washer. The assay was developed by adding 100 μl of pNPP and incubating at room temperature for 5-10 minutes. The absorbance was read at 405 nm. […]
The ability of the compound to inhibit the binding of the TyrRS1B peptide to TyrRS was determined. […]

Assay [3] concerns the target T2, E. coli ProRS (Escherichia coli, UniProt P16659).
T2 sequence (P16659 whole entry, looked up): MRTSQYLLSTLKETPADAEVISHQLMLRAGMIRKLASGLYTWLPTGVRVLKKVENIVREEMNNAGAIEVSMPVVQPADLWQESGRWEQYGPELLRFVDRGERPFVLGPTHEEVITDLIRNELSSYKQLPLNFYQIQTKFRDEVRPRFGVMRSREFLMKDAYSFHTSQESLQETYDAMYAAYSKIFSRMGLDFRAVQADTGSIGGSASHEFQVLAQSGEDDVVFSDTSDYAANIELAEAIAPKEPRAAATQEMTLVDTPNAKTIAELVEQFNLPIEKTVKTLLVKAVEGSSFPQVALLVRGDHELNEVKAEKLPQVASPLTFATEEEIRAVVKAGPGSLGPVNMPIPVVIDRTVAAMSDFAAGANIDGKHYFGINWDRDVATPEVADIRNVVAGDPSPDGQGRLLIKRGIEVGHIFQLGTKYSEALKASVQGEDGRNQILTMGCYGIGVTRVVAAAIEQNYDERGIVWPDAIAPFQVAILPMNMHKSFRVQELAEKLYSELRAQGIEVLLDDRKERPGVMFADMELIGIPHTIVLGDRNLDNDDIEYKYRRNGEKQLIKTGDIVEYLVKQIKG
The experiment in a line: ELSA of ProRS surrogate ligand. It is filed as binding. The settings on record: self-competition. The protocol:
as §1, §2, §3

Where a SMILES comes first, the peptide text is derived from it. Bridges are numbered along the chain shown (N, C = ends).

This is an account of results in patent publication US6617114B1, “Identification of drug complementary combinatorial libraries” (priority 1996, dated 2003).

TyrRS, sequence (P43836 whole entry): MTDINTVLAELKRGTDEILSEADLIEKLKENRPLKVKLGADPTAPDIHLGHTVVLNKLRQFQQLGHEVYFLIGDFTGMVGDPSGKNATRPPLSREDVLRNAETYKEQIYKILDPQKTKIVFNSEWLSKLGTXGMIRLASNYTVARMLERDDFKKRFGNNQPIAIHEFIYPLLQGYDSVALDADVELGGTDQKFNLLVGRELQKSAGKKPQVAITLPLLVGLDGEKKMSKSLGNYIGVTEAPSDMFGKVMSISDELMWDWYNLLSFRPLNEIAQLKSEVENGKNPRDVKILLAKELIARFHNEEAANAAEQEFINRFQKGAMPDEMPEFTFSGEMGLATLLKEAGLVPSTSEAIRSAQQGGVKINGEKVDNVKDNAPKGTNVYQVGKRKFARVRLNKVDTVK

In the case of `CC[C@H](C)[C@@H]1NC(=O)[C@H](C)NC(=O)[C@@H](NC(=O)[C@@H](NC(=O)[C@H](CCCNC(=N)N)NC(=O)[C@@H](N)CO)C(C)C)CSSC[C@@H](C(=O)N[C@@H](CO)C(=O)N[C@@H](CCCNC(=N)N)C(=O)O)NC(=O)CNC(=O)[C@H](CC(=O)O)NC(=O)[C@H](CC(C)C)NC(=O)[C@H](CC(=O)O)NC(=O)[C@@H]2CCCN2C(=O)[C@H](Cc2c[nH]c3ccccc23)NC1=O` [ProRS BioKey, S R V C A I W P D L D G C S R] (H-SRVCAIWPDLDGCSR-OH; disulfide 4-13; N-terminus and C-terminus assumed), at E. coli ProRS [1], the “specificity of binding of biotinylated peptide” value is recorded as “specific for E. coli ProRS”. For the same molecule, the “time of preincubation with the peptide for 50% inhibition” value on E. coli ProRS [2] (530 μM peptide) is recorded as “about 1.5 hours”. The mode of inhibition result on E. coli ProRS [2] (charging assay) is recorded as “competitive in respect to proline”.

As for “L Y S W P D E Q Y E R P (LYSWPDEQYERP) [Peptide 1]”, the “specificity of binding of biotinylated peptide” value with TyrRS was “binds to TyrRS specifically”.

With “S R V C A I W P D L D G C S R (SRVCAIWPDLDGCSR) [non-biotinylated ProRS peptide]”, the “disruption of biotinylated ProRS peptide binding” value with E. coli ProRS [3] is reported as “disrupted in a dose dependent fashion”.
